According to patent publication US11697648B2, “Fused pyrimidine pyridinone compounds as JAK inhibitors” (THERAVANCE BIOPHARMA R&D IP, LLC, priority 2019, dated 2023):

Legend:
[1] = biological target: JAK1 (Homo sapiens (Human), UniProt P23458); experiment: Biochemical JAK1 kinase assay (LanthaScreen)
Outline: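 GST-JAK + GFP-STAT1 peptide, HEPES pH 7.5/MgCl2/EGTA/Brij-35 buffer; cpd preincubation 1 h RT; ATP start, 1 h RT; stop with 10 mM EDTA + 2 nM Tb-anti-pSTAT1; TR-FRET 520/495. 4-parameter IC50 → pKi (Cheng-Prusoff).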

[2] = test system: IL-2 stimulated STAT5 phosphorylation in Tall-1 human T cell line (JAK3); experiment: Cellular JAK3 potency assay: inhibition of IL-2 stimulated pSTAT5 in Tall-1 T cells; assay type: cell-based; settings: IL-2 stimulated pSTAT5, Tall-1 T cells
Outline: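 Tall-1 cells, 45,000 per well, preincubated 1 hour with compound at 37 °C, then stimulated 30 minutes with IL-2 at 300 ng/ml final. pSTAT5 (Tyr694/699) in lysates quantified by AlphaLISA SureFire Ultra. pIC50 derived from inhibition curves, given as mean with SD.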

[3] = Colon and plasma mouse pharmacokinetics; assay type: in vivo; settings: mouse, colon tissue / plasma; male Balb/c mice, 10 mg/kg PO; ratio of the colon AUC to the plasma AUC
Outline: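 Male Balb/c mice given 10 mg/kg PO in 1% HPMC + 0.1% Tween-80; plasma, colon tissue and colon contents taken at 0.5, 2 and 6 h, quantified by LC/MS/MS. Non-compartmental analysis on means of 2 animals/time point; colon:plasma ratio taken as colon AUC over plasma AUC.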

JAK1, sequence (P23458 whole entry): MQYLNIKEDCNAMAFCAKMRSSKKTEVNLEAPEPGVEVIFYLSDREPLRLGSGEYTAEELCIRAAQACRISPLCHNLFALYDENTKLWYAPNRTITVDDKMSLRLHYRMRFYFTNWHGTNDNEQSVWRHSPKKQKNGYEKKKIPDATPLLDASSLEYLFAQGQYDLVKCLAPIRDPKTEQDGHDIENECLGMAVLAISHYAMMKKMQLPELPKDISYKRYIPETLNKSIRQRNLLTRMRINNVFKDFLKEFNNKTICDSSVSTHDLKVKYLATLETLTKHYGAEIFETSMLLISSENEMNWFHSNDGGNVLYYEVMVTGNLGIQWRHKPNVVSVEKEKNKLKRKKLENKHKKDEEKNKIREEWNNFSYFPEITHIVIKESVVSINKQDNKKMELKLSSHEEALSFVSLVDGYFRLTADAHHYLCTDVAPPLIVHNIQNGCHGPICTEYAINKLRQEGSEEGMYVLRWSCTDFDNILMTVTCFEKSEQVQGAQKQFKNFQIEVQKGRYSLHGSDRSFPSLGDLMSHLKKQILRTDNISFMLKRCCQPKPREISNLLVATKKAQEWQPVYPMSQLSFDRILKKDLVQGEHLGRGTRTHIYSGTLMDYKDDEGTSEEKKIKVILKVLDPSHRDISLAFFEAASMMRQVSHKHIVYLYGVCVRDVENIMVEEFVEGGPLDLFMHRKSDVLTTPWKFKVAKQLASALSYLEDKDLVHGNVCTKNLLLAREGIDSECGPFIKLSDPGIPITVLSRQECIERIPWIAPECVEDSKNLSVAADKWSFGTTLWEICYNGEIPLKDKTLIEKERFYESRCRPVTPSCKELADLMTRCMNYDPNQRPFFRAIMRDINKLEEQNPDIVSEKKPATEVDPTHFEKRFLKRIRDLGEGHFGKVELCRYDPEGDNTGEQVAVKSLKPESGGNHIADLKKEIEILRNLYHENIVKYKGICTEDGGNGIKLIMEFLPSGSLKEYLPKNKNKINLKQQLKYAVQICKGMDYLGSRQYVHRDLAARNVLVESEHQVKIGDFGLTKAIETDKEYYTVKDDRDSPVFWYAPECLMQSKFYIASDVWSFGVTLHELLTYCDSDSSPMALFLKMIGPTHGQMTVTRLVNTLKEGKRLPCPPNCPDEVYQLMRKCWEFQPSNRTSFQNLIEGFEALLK

| Compound | JAK 1 (pKi) [1] | Tall-1 (pIC50) [2] | Kp [3] |
| --- | --- | --- | --- |
| C=CC(=O)N1CCN(CCn2c(=O)ccc3cnc(Nc4ccc(N5CCN(C)CC5)cc4)nc32)CC1 [Example 1, 8-(2-(4-acryloylpiperazin-1-yl)ethyl)-2-((4-(4-methylpiperazin-1-yl)phenyl)amino)pyrido[2,3-d]pyrimidin-7(8H)-one] | E (E represents a pKi value of 7 or below (Ki of 100 nM or above)) | B (B represents a pC50 value between 6.7 (included) and 7.5 (IC50 between 200 nM and 32 nM)) | > 1000 |
| C=CC(=O)N1CC(CCn2c(=O)ccc3cnc(Nc4ccc(N5CCN(C(C)=O)CC5)cc4)nc32)C1 [Example 2, 2-((4-(4-acetylpiperazin-1-yl)phenyl)amino)-8-(2-(1-acryloylazetidin-3-yl)ethyl)pyrido[2,3-d]pyrimidin-7(8H)-one] | E (E represents a pKi value of 7 or below (Ki of 100 nM or above)) | B (B represents a pC50 value between 6.7 (included) and 7.5 (IC50 between 200 nM and 32 nM)) | > 100 |
| C=CC(=O)N1CCN(CCn2c(=O)ccc3cnc(Nc4ccc(N5CCN(C(=O)CCSC)CC5)cc4)nc32)CC1 [Example 4, 8-(2-(4-acryloylpiperazin-1-yl)ethyl)-2-((4-(4-(3-(methylthio)propanoyl)piperazin-1-yl)phenyl)amino)pyrido[2,3-d]pyrimidin-7(8H)-one] | E (E represents a pKi value of 7 or below (Ki of 100 nM or above)) | B (B represents a pC50 value between 6.7 (included) and 7.5 (IC50 between 200 nM and 32 nM)) | > 1000 |
| C=CC(=O)N1CC(CCn2c(=O)ccc3cnc(Nc4cccc(CN5CCN(C(=O)N(C)C)CC5)c4)nc32)C1 [Example 5, 4-(3-((8-(2-(1-acryloylazetidin-3-yl)ethyl)-7-oxo-7,8-dihydropyrido[2,3-d]pyrimidin-2-yl)amino)benzyl)-N,N-dimethylpiperazine-1-carboxamide] | E (E represents a pKi value of 7 or below (Ki of 100 nM or above)) | B (B represents a pC50 value between 6.7 (included) and 7.5 (IC50 between 200 nM and 32 nM)) | > 100 |
| C=CC(=O)N1CC(CCn2c(=O)ccc3cnc(Nc4cccc(N5CCN(C(=O)CCSC)CC5)c4)nc32)C1 [Example 7, 8-(2-(1-acryloylazetidin-3-yl)ethyl)-2-((3-(4-(3-(methylthio)propanoyl)piperazin-1-yl)phenyl)amino)pyrido[2,3-d]pyrimidin-7(8H)-one] | E (E represents a pKi value of 7 or below (Ki of 100 nM or above)) | B (B represents a pC50 value between 6.7 (included) and 7.5 (IC50 between 200 nM and 32 nM)) | > 100 |
| C=CC(=O)N1CCN(CCn2c(=O)ccc3cnc(Nc4cnn(C)c4)nc32)[C@@H](CC)C1 [Example 12, (S)-8-(2-(4-acryloyl-2-ethylpiperazin-1-yl)ethyl)-2-((1-methyl-1H-pyrazol-4-yl)amino)pyrido[2,3-d]pyrimidin-7(8H)-one] | E (E represents a pKi value of 7 or below (Ki of 100 nM or above)) | B (B represents a pC50 value between 6.7 (included) and 7.5 (IC50 between 200 nM and 32 nM)) | > 50 |
| C=CC(=O)N1CC(CCn2c(=O)ccc3cnc(Nc4ccc(N5CCN(C(=O)CSC)CC5)cc4)nc32)C1 [Example 13, 8-(2-(1-acryloylazetidin-3-yl)ethyl)-2-((4-(4-(2-(methylthio)acetyl)piperazin-1-yl)phenyl)amino)pyrido[2,3-d]pyrimidin-7(8H)-one] | E (E represents a pKi value of 7 or below (Ki of 100 nM or above)) | B (B represents a pC50 value between 6.7 (included) and 7.5 (IC50 between 200 nM and 32 nM)) | > 1000 |
